Test results published in patent US11351147B2, “Short syntheses of (−)-picrotoxinin and related compounds” (The Scripps Research Institute, priority 2020, dated 2022).
“And” between values parts separate entries of the source, which are not always exact repeats. Identical values can stand only once.

Tests used:
[1] = Hydrolytic stability study in pH 8 phosphate buffer (NMR monitoring); type: physicochemical; details: for Concentration over Time: 100 mM phosphate buffer pH=8 (D2O); for ln of concentration: pH=8 buffer
Procedure: In separate 5 mm NMR tubes, picrotoxinin (1, 1 mg) or 5-methyl picrotoxinin (20, 1 mg) were dissolved in 1 mL of 100 mM phosphate buffer (pH=8, prepared with D20). Spectra were acquired at 0, 6, 12, 24, 36, 48, 60, 72, 84, 96, and 120 h. and monitored for the amount of hydrolysis product (Table 1).

[2] = molecular target: Rat GABAA Ion Channel; test: Non-selective Rat GABAA Ion Channel [3H] TBOB Binding (Antagonist Radioligand) Assay; details: displacement of [3H] TBOB, rat cerebral cortex GABAA receptors
Procedure: A Non-selective Rat GABAA Ion Channel [3H] TBOB Binding (Antagonist Radioligand) Assay (Catalog #3817) was conducted by Eurofins Pharma Discovery Service of Eurofins Cerep, France. The assay is based on these publications: Lewin, A. H. et al. Mol. Pharmacol. 1989, 35, 189, and Schwartz, R. D.; Mindlin, M. C. J. Pharmacol. Exp. Ther. 1987, 244, 963.
Compound binding was calculated as a percentage inhibition of the binding of the radioactive ligand [3H] TBOB (t-[3H]Butylbicycloorthobenzoate) for RAT GABAA Ion Channels.
A 20.0 mM stock solution was prepared in DMSO from pure solid 5-methyl-picrotoxinin (20) to evaluate radioligand displacement of [3H] TBOB from rat cerebral cortex GABAA receptors at final concentrations of 200 μM, 63 μM, 20 μM, 6.3 μM, 2.0 μM, and 0.6 μM.

[3] = system: mice; details: cited from earlier work

Row | SMILES | Concentration over Time ([1]; 0 h) [mM] | Concentration over Time ([1]; 6 h) [mM] | Concentration over Time ([1]; 12 h) [mM] | Concentration over Time ([1]; 24 h) [mM] | Concentration over Time ([1]; 36 h) [mM] | Concentration over Time ([1]; 48 h) [mM] | Concentration over Time ([1]; 60 h) [mM] | Concentration over Time ([1]; 72 h) [mM] | Concentration over Time ([1]; 84 h) [mM] | Concentration over Time ([1]; 96 h) [mM] | Concentration over Time ([1]; 120 h) [mM] | ln of concentration ([1]; 0 h) | ln of concentration ([1]; 6 h) | ln of concentration ([1]; 12 h) | ln of concentration ([1]; 24 h) | ln of concentration ([1]; 36 h) | ln of concentration ([1]; 48 h) | ln of concentration ([1]; 60 h) | ln of concentration ([1]; 72 h) | ln of concentration ([1]; 84 h) | other results
1 | C=C(C)C1C2OC(=O)C1(C)C1(O)C[C@H]3O[C@]34C(=O)OC2C14C (stereo partly drawn) [compound 20, 5-methylpicrotoxinin] | 3.27 | 3 | 2.771 | 2.44 | 2.195 | 2.031 | 1.912 | 1.797 | 1.686 | 1.643 | 1.535 | 1.185 | 1.099 | 1.019 | 0.8921 | 0.786 | 0.7086 | 0.6483 | 0.586 | 0.5221 | aqueous stability compared with compound (1) ([1]; pH 8): slightly improved; pseudo-first order rate constant compared with compound (1) ([1]; pH 8): more than halving; ln of concentration ([1]; 96 h): 0.4967; ln of concentration ([1]; 120 h): 0.4287; IC50 [2]: 9.2 µM and 9 µM; Ki [2]: 8.2 µM
2 | C=C(C)C1C2OC(=O)C1C1(O)C[C@H]3O[C@]34C(=O)OC2C14C (single isomer, unassigned; (-)) [compound 1, (−)-picrotoxinin] | 3.42 | 3.257 | 2.974 | 2.124 | 1.879 | 1.413 | 1.281 | 1.167 | 0.9144 | 0.7755 | 0.5294 | 1.23 | 1.181 | 1.09 | 0.7534 | 0.6308 | 0.3459 | 0.2476 | 0.1546 | −0.08945 | ln of concentration ([1]; 96 h): −0.2542; ln of concentration ([1]; 120 h): −0.636; IC50 [2]: 0.2 µM; Ki [2]: 0.2 µM
3 | C[C@@H]1CC[C@]23OC(=O)[C@@]4(O)O[C@H](C[C@@]124)[C@@]1(O)C(=O)OC[C@@]31C [jiadifenolide] |  |  |  |  |  |  |  |  |  |  |  |  |  |  |  |  |  |  |  |  | convulsive signature [3]: no convulsive signature
